Data reported in patent US20070232492A1, “Herbicidal Composition” (Ishihara Sangyo Kaisha, LTD., priority 2004, published 2007).
Like-named read-outs stand apart in the source and are kept apart here.

Test system: barnyardgrass (Echinochloa oryzicola vasing)
Experiment: Growth inhibition of barnyardgrass in paddy soil pots, application under submerged condition, visual rating (observed value) and Colby expected value
Type: in vivo
Details: for inhibition at 51 g/ha: 0.51 g/a; for inhibition at 7.9 g/ha: 0.079 g/a; for inhibition at 15.8 g/ha: 0.158 g/a; for inhibition at 50 g/ha: 0.5 g/a; for inhibition at 112.5 g/ha: 1.125 g/a; for inhibition at 225 g/ha: 2.25 g/a
Description: When the herbicidal activity in a case where two active ingredients are combined, is larger than the simple sum of the respective herbicidal activities of the two active ingredients (the expected activity), it is called a synergistic effect. The activity expected by the combination of two active ingredients can be calculated as follows (Colby S. R., “Weed”, vol. 15, p. 20-22, 1967). E=p+q−(p×q÷100) where p: growth inhibition rate when treated with x (g/a) of herbicide X,
q: growth inhibition rate when treated with y (g/a) of herbicide Y,
E: growth inhibition rate expected when treated with x (g/a) of herbicide X and y (g/a) of herbicide Y.
Namely, when the actual growth inhibition rate (observed value) is larger than the growth inhibition rate by the above calculation (expected value), the activity by the combination can be regarded as showing a synergistic effect.
Paddy field soil was put into a 1/10,000 are pot, and seeds of barnyardgrass (Echinochloa oryzicola vasing) were sown and left to stand under an irrigated condition with a water depth of 3.5 cm. When barnyardgrass reached 2.0 to 2.5 leaf stage, wettable powders of compound A2 and compound (B1.1) were, respectively, diluted with water and applied under submerged condition so that the active ingredients became the prescribed amounts, respectively. The state of growth was visually observed 21 days after application, and the growth inhibition rate (%) evaluated in accordance with the following evaluation standard (observed value) and the growth inhibition rate (%) calculated by the above-mentioned Colby method (expected value) are shown in Table 1.
Growth inhibition rate (%)=0% (equivalent to the non-treated area) to 100% (complete kill)
(§1) Paddy field soil was put into a 1/10,000 are pot, and seeds of barnyardgrass (Echinochloa oryzicola vasing) were sown and left to stand under an irrigated condition with a water depth of 3.5 cm. When barnyardgrass reached 2.0 to 2.5 leaf stage, wettable powders of compound A2 and compound (B2.1) were, respectively, diluted with water and applied under submerged condition so that the active ingredients became the prescribed amounts, respectively. The state of growth was visually observed 21 days after application, and evaluation and calculation were carried out in the same manner as in the above Test Example 1.
as §1, with “leaf stage, a wettable powder” for “leaf stage, wettable powders”, “a wettable powder of compound” for “stage, wettable powders of compound”, “A2 and an emulsifiable concentrate of compound (B3.1)” for “A2 and compound (B2.1)”, “of compound (B3.1) were, respectively,” for “and compound (B2.1) were, respectively,”
as §1, with “(B4.1)” for “(B2.1)”
Paddy field soil was put into a 1/10,000 are pot, and seeds of barnyardgrass (Echinochloa oryzicola vasing) were sown and left to stand under an irrigated condition with a water depth of 3.5 cm. […]

[1] = Echinochloa oryzicola, soil, 336 h, 2.8 to 3.4 leaf stage, 14 days after application, Test Examples 66-72, read-out: Growth inhibition rate (%) Observed
[2] = Echinochloa oryzicola, soil, 504 h, 2.0 to 2.5 leaf stage, 21 days after application, read-out: Growth inhibition rate (%) Observed
[3] = Echinochloa oryzicola, soil, 504 h, 3.0 to 3.3 leaf stage, 21 days after application, read-out: Growth inhibition rate (%) Observed
[4] = Echinochloa oryzicola, soil, 528 h, 2.5 to 3.0 leaf stage, 22 days after application, read-out: Growth inhibition rate (%) Observed
[5] = Echinochloa oryzicola, soil, 528 h, 2.1 to 3.2 leaf stage, 22 days after application, read-out: Growth inhibition rate (%) Observed

With `COC(=O)c1ccccc1CS(=O)(=O)NC(=O)Nc1nc(OC)cc(OC)n1` [Compound (B1.1), bensulfuron-methyl] the inhibition at 25.5 g/ha (Echinochloa oryzicola, soil, 336 h, 0.255 g/a, 2.8 to 3.4 leaf stage, 14 days after application, Test Examples 66-72, read-out: Growth inhibition rate (%) Observed) was 30%, the inhibition at 51 g/ha [1] was 45% and the inhibition at 26 g/ha (Echinochloa oryzicola, soil, 504 h, 0.26 g/a, 2.0 to 2.5 leaf stage, 21 days after application, read-out: Growth inhibition rate (%) Observed) was 47%. It also gave an inhibition at 51 g/ha [2] of 57%.
In the case of `CCOC(=O)c1cnn(C)c1S(=O)(=O)NC(=O)Nc1nc(OC)cc(OC)n1` [Compound (B1.3), pyrazosulfuron-ethyl], the inhibition at 7.9 g/ha [3] was 20%, the inhibition at 15.8 g/ha [3] was 37% and the inhibition at 7.9 g/ha [4] was 50%. For the same compound, the inhibition at 15.8 g/ha [4] was 70%.
Work on `COc1cc(OC)nc(NC(=O)NS(=O)(=O)c2c(Cl)nc3ccccn23)n1` [Compound (B1.4), imazosulfuron] yielded an inhibition at 45 g/ha (Echinochloa oryzicola, soil, 336 h, 0.45 g/a, 2.8 to 3.4 leaf stage, 14 days after application, Test Examples 66-72, read-out: Growth inhibition rate (%) Observed) of 25%, an inhibition at 90 g/ha (Echinochloa oryzicola, soil, 336 h, 0.9 g/a, 2.8 to 3.4 leaf stage, 14 days after application, Test Examples 66-72, read-out: Growth inhibition rate (%) Observed) of 40% and an inhibition at 33.8 g/ha (Echinochloa oryzicola, soil, 528 h, 0.338 g/a, 2.5 to 3.0 leaf stage, 22 days after application, read-out: Growth inhibition rate (%) Observed) of 53%. The inhibition at 67.5 g/ha (Echinochloa oryzicola, soil, 528 h, 0.675 g/a, 2.5 to 3.0 leaf stage, 22 days after application, read-out: Growth inhibition rate (%) Observed) was 57%.
`CCOc1ccccc1OS(=O)(=O)NC(=O)Nc1nc(OC)cc(OC)n1` [Compound (B1.5), ethoxysulfuron] gave an inhibition at 10.5 g/ha (Echinochloa oryzicola, soil, 336 h, 0.105 g/a, 2.8 to 3.4 leaf stage, 14 days after application, Test Examples 66-72, read-out: Growth inhibition rate (%) Observed) of 10%, an inhibition at 21 g/ha (Echinochloa oryzicola, soil, 336 h, 0.21 g/a, 2.8 to 3.4 leaf stage, 14 days after application, Test Examples 66-72, read-out: Growth inhibition rate (%) Observed) of 20% and an inhibition at 7.9 g/ha [4] of 0%. It also gave an inhibition at 15.8 g/ha [4] of 3%.
`COC(=O)c1c(Cl)nn(C)c1S(=O)(=O)NC(=O)Nc1nc(OC)cc(OC)n1` [Compound (B1.6), halosulfuron-methyl] showed an inhibition at 30 g/ha (Echinochloa oryzicola, soil, 456 h, read-out: Growth inhibition rate (%) Observed, 0.3 g/a, 2.8 to 3.2 leaf stage, 19 days after application, Test Examples 62-65) of 25% and an inhibition at 60 g/ha (Echinochloa oryzicola, soil, 456 h, read-out: Growth inhibition rate (%) Observed, 0.6 g/a, 2.8 to 3.2 leaf stage, 19 days after application, Test Examples 62-65) of 40%.
`CO/N=C(\C)c1cccc(Oc2nc(OC)cc(OC)n2)c1C(=O)OC` [Compound (B2.1), pyriminobac-methyl] was tested, and the inhibition at 90 g/ha (Echinochloa oryzicola, soil, 336 h, read-out: Growth inhibition rate (%) Observed, 0.9 g/a, 2.8 to 3.4 leaf stage, 14 days after application, Test Examples 66-72) was 60%, the inhibition at 22.5 g/ha (Echinochloa oryzicola, soil, 504 h, read-out: Growth inhibition rate (%) Observed, 0.225 g/a, 2.0 to 2.5 leaf stage, 21 days after application) was 60% and the inhibition at 45 g/ha (Echinochloa oryzicola, soil, 504 h, read-out: Growth inhibition rate (%) Observed, 0.45 g/a, 2.0 to 2.5 leaf stage, 21 days after application) was 80%.
With `COCc1cccc(C(O)c2nc(OC)cc(OC)n2)c1NS(=O)(=O)C(F)F` (stereo not drawn) [Compound (B2.2), KUH-021] the “Growth inhibition rate (%) Observed” value (0.25 g/a, 2.8 to 3.2 leaf stage, 21 days after application, Test Examples 39-43) was 60% and the “Growth inhibition rate (%) Observed” value (0.335 g/a, 2.8 to 3.2 leaf stage, 21 days after application, Test Examples 39-43) was 68%.
`CS(=O)(=O)c1ccc(C(=O)C2C(=O)CCCC2=O)c([N+](=O)[O-])c1` [Compound (B4.2), mesotrione] was tested, and the inhibition at 25 g/ha (Echinochloa oryzicola, soil, 336 h, 0.25 g/a, 2.8 to 3.4 leaf stage, 14 days after application, Test Examples 66-72, read-out: Growth inhibition rate (%) Observed) was 0%, the inhibition at 50 g/ha [1] was 0% and the inhibition at 25 g/ha (Echinochloa oryzicola, soil, 504 h, 0.25 g/a, 2.0 to 2.5 leaf stage, 21 days after application, read-out: Growth inhibition rate (%) Observed) was 0%. It also gave an inhibition at 50 g/ha [2] of 0%.
In the case of `Cc1nn(C)c(OCC(=O)c2ccccc2)c1C(=O)c1ccc(Cl)cc1Cl` [Compound (B4.3), pyrazoxyfen], the “Growth inhibition rate (%) Observed” value (5.63 g/a, 2.5 to 3.0 leaf stage, 22 days after application) was 0% and the “Growth inhibition rate (%) Observed” value (11.25 g/a, 2.5 to 3.0 leaf stage, 22 days after application) was 10%.
In the case of `CS(=O)(=O)c1ccc(C(=O)C2C(=O)CCCC2=O)c(Cl)c1COCC1CCCO1` (stereo not drawn) [Compound (B4.4), AVH-301], the inhibition at 112.5 g/ha [1] was 0%, the inhibition at 225 g/ha [1] was 0% and the inhibition at 112.5 g/ha [5] was 13%. It also gave an inhibition at 225 g/ha [5] of 13%.
Compound `Cc1ccc(S(=O)(=O)Oc2c(C(=O)c3ccc(Cl)cc3Cl)c(C)nn2C)cc1` [Compound (B4.5), pyrazolynate] has an inhibition at 500 g/ha (Echinochloa oryzicola, soil, 456 h, 5 g/a, 2.8 to 3.2 leaf stage, 19 days after application, Test Examples 62-65, read-out: Growth inhibition rate (%) Observed) of 0% and an inhibition at 1000 g/ha (Echinochloa oryzicola, soil, 456 h, 10 g/a, 2.8 to 3.2 leaf stage, 19 days after application, Test Examples 62-65, read-out: Growth inhibition rate (%) Observed) of 0%.
In the case of `Cc1ccc(C(=O)COc2c(C(=O)c3ccc(Cl)c(C)c3Cl)c(C)nn2C)cc1` [Compound (B4.6), benzofenap], the “Growth inhibition rate (%) Observed” value (5 g/a, 2.8 to 3.2 leaf stage, 19 days after application, Test Examples 62-65) was 0% and the “Growth inhibition rate (%) Observed” value (10 g/a, 2.8 to 3.2 leaf stage, 19 days after application, Test Examples 62-65) was 0%.
For `CC(C)(NC(=O)NCc1ccccc1Cl)c1ccccc1` [Compound (B6.2), cumyluron], the inhibition at 750 g/ha (Echinochloa oryzicola, soil, 504 h, 7.5 g/a, 2.0 to 2.5 leaf stage, 21 days after application, read-out: Growth inhibition rate (%) Observed) was 3% and the inhibition at 1500 g/ha (Echinochloa oryzicola, soil, 504 h, 15 g/a, 2.0 to 2.5 leaf stage, 21 days after application, read-out: Growth inhibition rate (%) Observed) was 3%.
